From patent US20230295200A1 (REGENTS OF THE UNIVERSITY OF MICHIGAN, priority 2022, published 2023) come the findings set out here.

Each structure is given as a SMILES string. A value given as a limit tells only on which side of the number the result lay.

For one test, the target named is T1, STAT6 protein (Homo sapiens, UniProt P42226).
T1 sequence (P42226 1-847): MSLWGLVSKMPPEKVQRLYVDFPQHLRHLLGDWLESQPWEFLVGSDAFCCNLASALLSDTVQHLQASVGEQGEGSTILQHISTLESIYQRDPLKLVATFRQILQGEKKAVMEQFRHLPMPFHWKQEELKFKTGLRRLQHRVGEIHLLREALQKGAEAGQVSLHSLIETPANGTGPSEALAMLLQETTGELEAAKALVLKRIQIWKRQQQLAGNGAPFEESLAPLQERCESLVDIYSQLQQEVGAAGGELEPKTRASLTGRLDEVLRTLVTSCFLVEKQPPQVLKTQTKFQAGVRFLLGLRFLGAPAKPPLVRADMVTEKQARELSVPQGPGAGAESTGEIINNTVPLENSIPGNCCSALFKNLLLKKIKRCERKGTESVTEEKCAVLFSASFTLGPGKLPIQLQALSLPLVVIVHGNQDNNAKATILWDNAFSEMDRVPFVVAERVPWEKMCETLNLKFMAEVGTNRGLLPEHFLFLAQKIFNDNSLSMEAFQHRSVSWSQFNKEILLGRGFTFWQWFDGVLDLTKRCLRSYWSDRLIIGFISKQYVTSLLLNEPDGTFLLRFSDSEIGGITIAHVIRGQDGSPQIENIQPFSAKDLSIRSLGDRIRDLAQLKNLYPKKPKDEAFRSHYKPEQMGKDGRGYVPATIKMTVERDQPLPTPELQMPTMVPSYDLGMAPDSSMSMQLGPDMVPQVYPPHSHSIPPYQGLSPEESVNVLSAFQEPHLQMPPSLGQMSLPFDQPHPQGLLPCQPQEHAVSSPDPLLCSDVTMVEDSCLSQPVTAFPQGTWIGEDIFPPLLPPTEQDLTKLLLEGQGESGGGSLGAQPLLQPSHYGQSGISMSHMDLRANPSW
In words: Fluorescence polarization (FP) binding assay, STAT6. To be noted: FP competition, 5 nM fluorescein-labeled tracer, 200 nM protein, PBS pH7.4; read-out: Binding STAT6. Summed up:
(§1)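 Competitive FP read-out with 5 nM fluorescein-labeled tracer and 200 nM STAT5 or STAT6 protein in PBS pH 7.4 containing 0.01% BGG, 0.01% Tween-20 and 2 mM DTT. Plates were shaken 15 min, then equilibrated 1 h at room temperature; inhibition constants came from nonlinear curve fitting.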
(In fluorescence polarisation assays a small probe gives low polarisation when free and higher when bound to something large.)

The next test addresses T2, STAT5A (Homo sapiens, UniProt P42229).
T2 sequence (P42229 1-794): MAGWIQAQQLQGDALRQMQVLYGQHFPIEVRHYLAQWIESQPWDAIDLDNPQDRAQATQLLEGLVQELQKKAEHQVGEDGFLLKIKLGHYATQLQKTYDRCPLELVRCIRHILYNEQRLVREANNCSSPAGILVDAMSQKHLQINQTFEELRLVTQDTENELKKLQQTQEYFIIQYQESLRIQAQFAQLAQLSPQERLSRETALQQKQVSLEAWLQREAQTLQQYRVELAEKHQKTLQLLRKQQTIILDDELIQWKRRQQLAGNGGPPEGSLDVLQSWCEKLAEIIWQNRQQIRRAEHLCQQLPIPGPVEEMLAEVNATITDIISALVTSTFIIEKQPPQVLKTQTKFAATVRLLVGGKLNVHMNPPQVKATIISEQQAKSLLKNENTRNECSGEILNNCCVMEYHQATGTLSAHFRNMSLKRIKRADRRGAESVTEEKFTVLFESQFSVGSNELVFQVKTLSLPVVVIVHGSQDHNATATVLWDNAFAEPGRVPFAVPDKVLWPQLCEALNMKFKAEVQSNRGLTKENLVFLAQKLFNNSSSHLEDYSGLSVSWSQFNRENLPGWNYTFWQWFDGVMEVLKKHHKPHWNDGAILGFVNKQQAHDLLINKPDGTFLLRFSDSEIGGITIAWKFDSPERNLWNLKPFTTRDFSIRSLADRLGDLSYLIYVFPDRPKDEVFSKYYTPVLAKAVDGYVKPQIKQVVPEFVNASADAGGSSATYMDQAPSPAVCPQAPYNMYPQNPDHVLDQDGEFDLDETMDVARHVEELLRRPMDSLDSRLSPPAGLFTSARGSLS
The test can be described thus: Fluorescence polarization (FP) binding assay, STAT5A. To be noted: FP competition, 5 nM fluorescein-labeled tracer, 200 nM protein, PBS pH7.4. Summed up: as §1

With `CCCCC(=O)N1CC[C@@H]2CN(C(=O)[C@@H]3CCCN3C(=O)[C@@H](NC(=O)c3cc4cc(C(F)(F)P(=O)(O)O)ccc4s3)C(C)(C)C)C[C@@H]21` [Compound 88, ((2-(((S)-3,3-dimethyl-1-oxo-1-((S)-2-((3aR,6aR)-1-pentanoyloctahydropyrrolo[3,4-b]pyrrole-5-carbonyl)pyrrolidin-1-yl)butan-2-yl)carbamoyl)benzo[b]thiophen-5-yl)difluoromethyl)phosphonic acid], the Ki at STAT6 protein and at STAT5A was greater than 10 µM throughout.
Regarding `CC(C)(C)[C@H](NC(=O)c1cc2cc(C(F)(F)P(=O)(O)O)ccc2s1)C(=O)N1CCC[C@H]1C(=O)N1C[C@H]2CCN(C(=O)c3ccc(F)cc3)[C@H]2C1` [Compound 89, (difluoro(2-(((S)-1-((S)-2-((3aR,6aR)-1-(4-fluorobenzoyl)octahydropyrrolo[3,4-b]pyrrole-5-carbonyl)pyrrolidin-1-yl)-3,3-dimethyl-1-oxobutan-2-yl)carbamoyl)benzo[b]thiophen-5-yl)methyl)phosphonic acid], the Ki at STAT6 protein and at STAT5A was greater than 10 µM each time.
As to `CC(=O)N1CC[C@H]2CCN(C(=O)[C@@H]3CCCN3C(=O)[C@@H](NC(=O)c3cc4cc(C(F)(F)P(=O)(O)O)ccc4s3)C(C)(C)C)[C@H]2C1` [Compound 90, ((2-(((S)-1-((S)-2-((3aS,7aR)-6-acetyloctahydro-1H-pyrrolo[2,3-c]pyridine-1-carbonyl)pyrrolidin-1-yl)-3,3-dimethyl-1-oxobutan-2-yl)carbamoyl)benzo[b]thiophen-5-yl)difluoromethyl)phosphonic acid], the Ki at STAT6 protein and at STAT5A was greater than 10 µM each time.
For `CCCCC(=O)N1CC[C@H]2CCN(C(=O)[C@@H]3CCCN3C(=O)[C@@H](NC(=O)c3cc4cc(C(F)(F)P(=O)(O)O)ccc4s3)C(C)(C)C)[C@H]2C1` [Compound 91, ((2-(((S)-3,3-dimethyl-1-oxo-1-((S)-2-((3aS,7aR)-6-pentanoyloctahydro-1H-pyrrolo[2,3-c]pyridine-1-carbonyl)pyrrolidin-1-yl)butan-2-yl)carbamoyl)benzo[b]thiophen-5-yl)difluoromethyl)phosphonic acid], the Ki on STAT6 protein and at STAT5A was greater than 10 µM in each case.
On to `CC(=O)N1C[C@@H]2CCN(C(=O)[C@@H]3CCCN3C(=O)[C@@H](NC(=O)c3cc4cc(C(F)(F)P(=O)(O)O)ccc4s3)C(C)(C)C)[C@@H]2C1` [Compound 92, ((2-(((S)-1-((S)-2-((3aS,6aS)-5-acetyloctahydropyrrolo[3,4-b]pyrrole-1-carbonyl)pyrrolidin-1-yl)-3,3-dimethyl-1-oxobutan-2-yl)carbamoyl)benzo[b]thiophen-5-yl)difluoromethyl)phosphonic acid], for which the Ki on STAT6 protein and at STAT5A was greater than 10 µM each time.
With `CCCCC(=O)N1C[C@@H]2CCN(C(=O)[C@@H]3CCCN3C(=O)[C@@H](NC(=O)c3cc4cc(C(F)(F)P(=O)(O)O)ccc4s3)C(C)(C)C)[C@@H]2C1` [Compound 93, ((2-(((S)-3,3-dimethyl-1-oxo-1-((S)-2-((3aS,6aS)-5-pentanoyloctahydropyrrolo[3,4-b]pyrrole-1-carbonyl)pyrrolidin-1-yl)butan-2-yl)carbamoyl)benzo[b]thiophen-5-yl)difluoromethyl)phosphonic acid], the Ki on STAT6 protein and on STAT5A was greater than 10 µM throughout.
As for `CC(C)(C)[C@H](NC(=O)c1cc2cc(C(F)(F)P(=O)(O)O)ccc2s1)C(=O)N1CCC[C@H]1C(=O)N1CC[C@H]2CN(C(=O)c3ccc(F)cc3)C[C@H]21` [Compound 94, (difluoro(2-(((S)-1-((S)-2-((3aS,6aS)-5-(4-fluorobenzoyl)octahydropyrrolo[3,4-b]pyrrole-1-carbonyl)pyrrolidin-1-yl)-3,3-dimethyl-1-oxobutan-2-yl)carbamoyl)benzo[b]thiophen-5-yl)methyl)phosphonic acid], the Ki at STAT6 protein and on STAT5A was greater than 10 µM each time.
Turning to `CC(=O)N1CC[C@H]2CN(C(=O)[C@@H]3CCCN3C(=O)[C@@H](NC(=O)c3cc4cc(C(F)(F)P(=O)(O)O)ccc4s3)C(C)(C)C)C[C@H]21` [Compound 95, ((2-(((S)-1-((S)-2-((3aS,6aS)-1-acetyloctahydropyrrolo[3,4-b]pyrrole-5-carbonyl)pyrrolidin-1-yl)-3,3-dimethyl-1-oxobutan-2-yl)carbamoyl)benzo[b]thiophen-5-yl)difluoromethyl)phosphonic acid], the Ki on STAT6 protein and at STAT5A was greater than 10 µM throughout.
As for `CCCCC(=O)N1CC[C@H]2CN(C(=O)[C@@H]3CCCN3C(=O)[C@@H](NC(=O)c3cc4cc(C(F)(F)P(=O)(O)O)ccc4s3)C(C)(C)C)C[C@H]21` [Compound 96, ((2-(((S)-3,3-dimethyl-1-oxo-1-((S)-2-((3aS,6aS)-1-pentanoyloctahydropyrrolo[3,4-b]pyrrole-5-carbonyl)pyrrolidin-1-yl)butan-2-yl)carbamoyl)benzo[b]thiophen-5-yl)difluoromethyl)phosphonic acid], the Ki at STAT6 protein and at STAT5A was greater than 10 µM throughout.
Consider `CC(C)(C)[C@H](NC(=O)c1cc2cc(C(F)(F)P(=O)(O)O)ccc2s1)C(=O)N1CCC[C@H]1C(=O)N1C[C@@H]2CCN(C(=O)c3ccc(F)cc3)[C@@H]2C1` [Compound 97, (difluoro(2-(((S)-1-((S)-2-((3aS,6aS)-1-(4-fluorobenzoyl)octahydropyrrolo[3,4-b]pyrrole-5-carbonyl)pyrrolidin-1-yl)-3,3-dimethyl-1-oxobutan-2-yl)carbamoyl)benzo[b]thiophen-5-yl)methyl)phosphonic acid], for which the Ki at STAT6 protein and on STAT5A was greater than 10 µM throughout.
Consider `CC1(c2ccc(F)cc2)CN(C(=O)[C@@H]2CCCN2C(=O)[C@@H](NC(=O)c2cc3cc(C(F)(F)P(=O)(O)O)ccc3s2)C(C)(C)C)CCO1` (stereo partly drawn) [Compound 100, (difluoro(2-(((2S)-1-((2S)-2-(2-(4-fluorophenyl)-2-methylmorpholine-4-carbonyl)pyrrolidin-1-yl)-3,3-dimethyl-1-oxobutan-2-yl)carbamoyl)benzo[b]thiophen-5-yl)methyl)phosphonic acid], for which the Ki at STAT6 protein was 1 to 10 µM; at STAT5A, greater than 10 µM.
Regarding `CC1(c2ccc(Cl)cc2)CN(C(=O)[C@@H]2CCCN2C(=O)[C@@H](NC(=O)c2cc3cc(C(F)(F)P(=O)(O)O)ccc3s2)C(C)(C)C)CCO1` (stereo partly drawn) [Compound 101, ((2-(((2S)-1-((2S)-2-(2-(4-chlorophenyl)-2-methylmorpholine-4-carbonyl)pyrrolidin-1-yl)-3,3-dimethyl-1-oxobutan-2-yl)carbamoyl)benzo[b]thiophen-5-yl)difluoromethyl)phosphonic acid], the Ki at STAT6 protein is 1 to 10 µM; at STAT5A it was greater than 10 µM.
In the case of `CC(C)(C)[C@H](NC(=O)c1cc2cc(C(F)(F)P(=O)(O)O)ccc2s1)C(=O)N1CCC[C@H]1C(=O)N1CCOC(c2ccc(F)cc2)C1` (stereo partly drawn) [Compound 102, (difluoro(2-(((2S)-1-((2S)-2-(2-(4-fluorophenyl)morpholine-4-carbonyl)pyrrolidin-1-yl)-3,3-dimethyl-1-oxobutan-2-yl)carbamoyl)benzo[b]thiophen-5-yl)methyl)phosphonic acid], the values for the Ki at STAT6 protein and on STAT5A were 0.1 to 1 µM and greater than 10 µM, respectively.
